Measured values from patent publication US5770713A, “Phosphorothioate triester oligonucleotides and method of preparation” (Centre National de la Recherche Scientifique, priority 1993, dated 1998).

What was measured:
[1] = Stability of dimers in cellular extract (CEM cells), HPLC; format: in vitro ADME; conditions: 37° C., C0 =5×10^-5 M; for % PS^- (molar fraction of phosphorothioate diester dinucleoside formed, relative to initial quantity of phosphorothioate triester dinucleoside): after complete decomposition of the starting triester; for half-life at 50 µM: human, cem cell extract, read-out: t1/2 (time at the end of which half of the starting product has decomposed)
Protocol: (§1) Distilled water is purified on a MilliQ system (Waters-Millipore), Acetonitrile is of HPLC-far UV quality (Fisons), Ammonium acetate is of "analytical" quality (MERCK), The culture media are composed of 90% of RPMI 1640 and 10% of heat-inactivated fetal calf serum (GIBCO), The cellular extracts were kindly supplied by a person -M. Aubertin (University of Strasbourg I). They are prepared in the following way: CEM cells in the exponential growth phase are separated from the culture medium by centrifugation (10^4 g, 4 min, […]). The residue (approximately100 μl, 5×10^7 cells) is dissolved in 2 ml of buffer (Tris-HCl 140 mM, pH=7.4) and sonicated. The lysate is centrifuged (10^5 g, 1 h, 4°) to eliminate membranes, organelles and chromatin. Two types of eluents were utilized for the HPLC:
(§2) A 10^-2 M solution of the compound to be studied is prepared in DMSO.
(§3) This solution is diluted with water to give a parent solution of concentration 5×10^-4 M.
b) Study of stability in cellular extract: 100 μl of parent solution of the compound to be studied are added to 900 μl of cellular extract which has previously been filtered on a Millex GV sterile filter (Millipore, 0.22 μm). After mixing, fractions (100 μl) are distributed in Eppendorf tubes. These tubes are placed in an oven at 37° C. and removed as a function of the kinetic development. The samples are immediately analyzed by HPLC.
(§4) tl/2 =time at the end of which half of the starting product has decomposed
(§5) % PO^- , % PS^- =molar fractions of phosphodiester dinucleoside and of phosphorothioate diester dinucleoside, expressed in relation to the initial quantity of phosphorothioate triester dinucleoside.
(§6) The percentage of PS^- corresponds to the quantity of phosphorothioate diester dinucleoside formed after complete decomposition of the starting phosphorothioate triester dinucleoside (considering that the phosphorothioate diester dinucleoside is stable under the condition used and accumulates).

[2] = Stability of dimers in culture medium (RPMI + 10% serum), HPLC; format: in vitro ADME, fetal calf; conditions: 37° C., C0 =5×10^-5 M; for % PS^- (molar fraction of phosphorothioate diester dinucleoside formed, relative to initial quantity of phosphorothioate triester dinucleoside): after complete decomposition of the starting triester; for % PO^- (molar fraction of phosphodiester dinucleoside, relative to initial quantity of phosphorothioate triester dinucleoside): calculated as 100-% PS^- formed; for half-life at 50 µM: read-out: t1/2 (time at the end of which half of the starting product has decomposed) (converted)
Protocol: as §1, §2, §3
a) Study of stability in culture medium:
100 μl of parent solution of the compound to be studied are added to 900 μl of culture medium which has previously been filtered on a Millex GV sterile filter (Millipore, 0.22 μm). After mixing, fractions (100 μl) are distributed in sterile Eppendorf tubes. These tubes are placed in an oven at 37° C. and removed as a function of the kinetic development. The samples are immediately analyzed by HPLC (volume injected: 80 μl) or preserved at -25° C. with a view to subsequent analysis.
as §4, §5, §6

[3] = Stability of oligonucleotides in culture medium (RPMI + 10% serum), HPLC; format: in vitro ADME, fetal calf; conditions: 37° C.
Protocol: as §1
(§7) The general conditions are the same as those used for the study of stability of the phosphorothioate triester dimers, as far as the method, the equipment and the chemical products are concerned. […]
30 μl of parent solution of oligonucleotide (being approximately 1.5 A260 units) are removed, which are added to 1470 μl of culture medium which has previously been filtered on a sterile Millex GV filter (Millipore 0.22 μm). […] The samples are immediately analyzed by HPLC (volume injected 80 μl) or preserved at -25° C. with a view to subsequent analysis.

[4] = Stability of oligonucleotides in cellular extract (CEM cells), HPLC; format: in vitro ADME; conditions: 37° C.
Protocol: as §1, §7
10 μl of oligonucleotide parent solution are added to 990 μl of cellular extract which have previously been filtered on a sterile Millex GV filter (Millipore, 0.22 μm). After mixing, fractions (100 μl) are distributed in sterile Eppendorf tubes, placed in an oven at 37° C., sampled at different times and immediately analyzed by HPLC.

Molecule	% PS^- (molar fraction of phosphorothioate diester dinucleoside formed, relative to initial quantity of phosphorothioate triester dinucleoside) [1] [%]	half-life at 50 µM [1] [min]	% PS^- (molar fraction of phosphorothioate diester dinucleoside formed, relative to initial quantity of phosphorothioate triester dinucleoside) [2] [%]	% PO^- (molar fraction of phosphodiester dinucleoside, relative to initial quantity of phosphorothioate triester dinucleoside) [2] [%]	half-life at 50 µM [2] [min]	t1/2 of disappearance of the starting oligonucleotide [3] [min]	t1/2 of disappearance of the starting oligonucleotide [4] [min]	t1/2 of formation of the totally deprotected oligonucleotide [4] [min]
CC(=O)SCCSP(=O)(OC[C@H]1O[C@@H](n2cc(C)c(=O)[nH]c2=O)C[C@@H]1O)O[C@H]1C[C@H](n2cc(C)c(=O)[nH]c2=O)O[C@@H]1CO (stereo partly drawn) [Compound 4b, O-(Thymidin-3'-yl) O-(thymidin-5'-yl) S-(acetylthioethyl) phosphorothioate]	100	10	50	50	420	–	–	–
6b: completely alkylated phosphorothioate dodecamer 6b; from d(CP(S) Ap(s) Cp(s) Cp(s) Cp(s) Ap(s) Ap(s) Tp(s) Tp(s) Cp(s) Tp(s) G) SEQ. ID. NO: 1 (CACCCAATTCTG; DNA, backbone not given here; all phosphorothioate linkages alkylated) [Compound 6b, completely alkylated phosphorothioate dodecamer 6b; ID; NO: 1]	–	–	–	–	–	55	< 2	25
CC(=O)SCSP(=O)(OC[C@H]1O[C@@H](n2cc(C)c(=O)[nH]c2=O)C[C@@H]1O)O[C@H]1C[C@H](n2cc(C)c(=O)[nH]c2=O)O[C@@H]1CO (stereo partly drawn) [Compound 4c, O-(Thymidin-3'-yl) O-(thymidin-5'-yl) S-(acetylthiomethyl) phosphorothioate]	100	5 to 10	80	20	60	–	–	–
Cc1cn([C@H]2C[C@H](OP(=O)(OC[C@H]3O[C@@H](n4cc(C)c(=O)[nH]c4=O)C[C@@H]3O)SCOC(=O)C(C)(C)C)[C@@H](CO)O2)c(=O)[nH]c1=O (stereo partly drawn) [Compound 4a, O-(Thymidin-3'-yl) O-(thymidin-5'-yl) S-(pivaloyloxymethyl) phosphorothioate]	100	40	20	80	360	–	–	–
